Numbers after ± are expanded uncertainties.
Assay: xn = mol fraction of the nth substance listed
Conditions: Liquid, Pycnometric method

COC(=O)OC [dimethyl carbonate] + O=C=O
mass density (327.95 K, 9750 kPa, x1 = 0.1484): 856 ± 4 kg/m3 | mass density (327.95 K, 9760 kPa, x1 = 0.118): 818 ± 4 kg/m3 | mass density (327.95 K, 9770 kPa, x1 = 0.0242): 407 ± 4 kg/m3 | mass density (327.95 K, 9860 kPa, x1 = 0.0242): 418 ± 4 kg/m3 | mass density (327.95 K, 9950 kPa, x1 = 0.0242): 430 ± 4 kg/m3 | mass density (327.95 K, 9990 kPa, x1 = 0.086): 750 ± 4 kg/m3 | mass density (327.95 K, 10040 kPa, x1 = 0.0242): 442 ± 4 kg/m3 | mass density (327.95 K, 10120 kPa, x1 = 0.0242): 453 ± 4 kg/m3 | mass density (327.95 K, 10240 kPa, x1 = 0.118): 827 ± 4 kg/m3 | mass density (327.95 K, 10240 kPa, x1 = 0.1484): 862 ± 4 kg/m3 | mass density (327.95 K, 10400 kPa, x1 = 0.086): 762 ± 4 kg/m3 | mass density (327.95 K, 10740 kPa, x1 = 0.086): 772 ± 4 kg/m3 | mass density (327.95 K, 10740 kPa, x1 = 0.118): 835 ± 4 kg/m3 | mass density (327.95 K, 10770 kPa, x1 = 0.1484): 868 ± 4 kg/m3 | mass density (327.95 K, 11180 kPa, x1 = 0.086): 782 ± 4 kg/m3 | mass density (327.95 K, 11220 kPa, x1 = 0.118): 842 ± 4 kg/m3 | mass density (327.95 K, 11260 kPa, x1 = 0.1484): 873 ± 4 kg/m3 | mass density (327.95 K, 11650 kPa, x1 = 0.086): 792 ± 4 kg/m3 | mass density (327.95 K, 11720 kPa, x1 = 0.118): 849 ± 4 kg/m3 | mass density (327.95 K, 11760 kPa, x1 = 0.1484): 878 ± 4 kg/m3 | mass density (327.95 K, 12200 kPa, x1 = 0.118): 855 ± 4 kg/m3 | mass density (327.95 K, 12210 kPa, x1 = 0.086): 802 ± 4 kg/m3 | mass density (327.95 K, 12260 kPa, x1 = 0.1484): 883 ± 4 kg/m3 | mass density (327.95 K, 12680 kPa, x1 = 0.118): 861 ± 4 kg/m3 | mass density (327.95 K, 12750 kPa, x1 = 0.086): 812 ± 4 kg/m3 | mass density (327.95 K, 12800 kPa, x1 = 0.1484): 888 ± 4 kg/m3 | mass density (327.95 K, 13200 kPa, x1 = 0.086): 819 ± 4 kg/m3 | mass density (327.95 K, 13310 kPa, x1 = 0.1484): 893 ± 4 kg/m3 | mass density (327.95 K, 13320 kPa, x1 = 0.118): 868 ± 4 kg/m3 | mass density (327.95 K, 13680 kPa, x1 = 0.086): 826 ± 4 kg/m3 | mass density (327.95 K, 13780 kPa, x1 = 0.118): 873 ± 4 kg/m3 | mass density (327.95 K, 13800 kPa, x1 = 0.1484): 897 ± 4 kg/m3 | mass density (327.95 K, 14170 kPa, x1 = 0.086): 833 ± 4 kg/m3 | mass density (327.95 K, 14240 kPa, x1 = 0.1484): 901 ± 4 kg/m3 | mass density (327.95 K, 14310 kPa, x1 = 0.118): 879 ± 4 kg/m3 | mass density (327.95 K, 14710 kPa, x1 = 0.086): 840 ± 4 kg/m3 | mass density (327.95 K, 14780 kPa, x1 = 0.1484): 905 ± 4 kg/m3 | mass density (327.95 K, 14800 kPa, x1 = 0.118): 884 ± 4 kg/m3 | mass density (327.95 K, 15160 kPa, x1 = 0.086): 846 ± 4 kg/m3 | mass density (327.95 K, 15260 kPa, x1 = 0.118): 888 ± 4 kg/m3 | mass density (327.95 K, 15300 kPa, x1 = 0.1484): 909 ± 4 kg/m3 | mass density (327.95 K, 15660 kPa, x1 = 0.086): 852 ± 4 kg/m3 | mass density (327.95 K, 15740 kPa, x1 = 0.118): 892 ± 4 kg/m3 | mass density (327.95 K, 15860 kPa, x1 = 0.1484): 913 ± 4 kg/m3 | mass density (327.95 K, 16180 kPa, x1 = 0.086): 858 ± 4 kg/m3 | mass density (327.95 K, 16330 kPa, x1 = 0.118): 897 ± 4 kg/m3 | mass density (327.95 K, 16560 kPa, x1 = 0.1484): 918 ± 4 kg/m3 | mass density (328.15 K, 9640 kPa, x1 = 0.0481): 532 ± 4 kg/m3 | mass density (328.15 K, 9710 kPa, x1 = 0.0481): 543 ± 4 kg/m3 | mass density (328.15 K, 9800 kPa, x1 = 0.0481): 556 ± 4 kg/m3 | mass density (328.15 K, 9910 kPa, x1 = 0.0481): 570 ± 4 kg/m3 | mass density (328.15 K, 10030 kPa, x1 = 0.0481): 585 ± 4 kg/m3 | mass density (328.15 K, 10180 kPa, x1 = 0.0481): 600 ± 4 kg/m3 | mass density (328.15 K, 10340 kPa, x1 = 0.0481): 615 ± 4 kg/m3 | mass density (328.15 K, 10540 kPa, x1 = 0.0481): 632 ± 4 kg/m3 | mass density (328.15 K, 10720 kPa, x1 = 0.0481): 645 ± 4 kg/m3 | mass density (328.15 K, 10940 kPa, x1 = 0.0481): 659 ± 4 kg/m3 | mass density (328.15 K, 11190 kPa, x1 = 0.0481): 673 ± 4 kg/m3 | mass density (328.15 K, 11350 kPa, x1 = 0.0481): 681 ± 4 kg/m3 | mass density (332.85 K, 9040 kPa, x1 = 0.0242): 282 ± 4 kg/m3 | mass density (332.85 K, 9110 kPa, x1 = 0.0242): 287 ± 4 kg/m3 | mass density (332.85 K, 9180 kPa, x1 = 0.1484): 814 ± 4 kg/m3 | mass density (332.85 K, 9200 kPa, x1 = 0.0242): 292 ± 4 kg/m3 | mass density (332.85 K, 9270 kPa, x1 = 0.0242): 298 ± 4 kg/m3 | mass density (332.85 K, 9350 kPa, x1 = 0.0242): 305 ± 4 kg/m3 | mass density (332.85 K, 9430 kPa, x1 = 0.0242): 311 ± 4 kg/m3 | mass density (332.85 K, 9520 kPa, x1 = 0.0242): 318 ± 4 kg/m3 | mass density (332.85 K, 9620 kPa, x1 = 0.118): 768 ± 4 kg/m3 | mass density (332.85 K, 9620 kPa, x1 = 0.1484): 821 ± 4 kg/m3 | mass density (332.85 K, 9640 kPa, x1 = 0.0242): 329 ± 4 kg/m3 | mass density (332.85 K, 9720 kPa, x1 = 0.0242): 336 ± 4 kg/m3 | mass density (332.85 K, 9810 kPa, x1 = 0.0242): 344 ± 4 kg/m3

Reference: the NIST ThermoML archive (doi:10.1021/je900691n)
